Results on 5 compounds are retold here after patent US4173654A, “Novel fluorohydrocarbons” (California Institute of Technology, priority 1977, dated 1979).

Where two headings read alike, the source gives them in different places.

A short description of series [1]: Literature values or other data (D, V, δ, BP). The series is classed as physicochemical.
The nature of series [2]: Oxygen solubility measured by gas chromatograph having a thermal conductivity detector. The series is classed as physicochemical. The following applies: 25° C., 760 mm O2 pressure. On the procedure: Oxygen solubilities were measured at 25° C. and 760 mm O2 pressure for representative hybrid, fluoroolefin and prior art compounds by means of a gas chromatograph having a thermal conductivity detector and calculated from molar volume and ΔH(vap) by the method of Fedors (Polymer, Engr. Sci. 14 147 (1974). Good agreement was obtained as shown in the following table: […]

For series [3] the following is noted: 3M data; cited from earlier work.

In series [1] (36mm), `CCOC(=O)CC(C(F)(F)F)(C(F)(F)F)C(F)(F)F` had a BP of 53 °C. In series [1] (unit not given), this compound returned a D of 1.4895, a V of 205.5 and a δ of 7.39. Besides, in series [2], the “Measured O2 Solubility” value amounted to 34.4 cc O2 /100 cc FC.
In series [1] (735mm), `FC(F)(F)C(=C(C(F)(C(F)(F)F)C(F)(F)F)C(F)(C(F)(F)F)C(F)(F)F)C(F)(F)F` gave a BP of 110 °C. In series [1] (unit not given), this compound returned a D of 1.820, a V of 219.8 and a δ of 6.4. The “Measured O2 Solubility” value in series [2] worked out at 39.5 cc O2 /100 cc FC.
For the compound `CCCCC(C(F)(F)F)(C(F)(F)F)C(F)(F)F` [(CF3)3 C(CH2)3 CH3], in series [1], the D was 1.393 g/cc, the V was determined as 198.3 cc/mole and the δ amounted to 5.98 Hb. This compound also had a BP in series [1] (750mm) of 101.5 °C. Also, the “Measured O2 Solubility” value in series [2] is 41.2 cc O2 /100 cc FC.
In the case of `C=CCC(C(F)(F)F)(C(F)(F)F)C(F)(F)F` [(CF3)3 CCH2 CHCH2], in series [1] (735mm), the BP was 76 °C. In series [1] (unit not given), the D is listed as 1.442, the V amounted to 180.31 and the δ is listed as 6.0. Further, in series [2], the “Measured O2 Solubility” value stood at 48 cc O2 /100 cc FC.
For `FC(F)(F)C(F)(F)C(F)(F)C(F)(F)N(C(F)(F)C(F)(F)C(F)(F)C(F)(F)F)C(F)(F)C(F)(F)C(F)(F)C(F)(F)F` [(n-C4 F9)3 N(FC-43), reference compound], the “3M solubility data (Literature Values)” value in series [3] is on record as 38.9 cc O2 /100ccFC. Moreover, in series [2], the “Measured O2 Solubility” value is given as 36.8 cc O2 /100 cc FC.
